Test results as given in patent publication US8455475B2 (Gruenenthal GmbH, priority 2009, dated 2013).

Each compound was assayed against T1, rat B1R (bradykinin receptor 1) (Rattus norvegicus, UniProt P97583) (assay: FLIPR Ca2+ assay (Fluo-4) on CHO K1 cells stably transfected with the B1R gene of the rat (rB1R cells): % inhibition at 10 μM / IC50, agonist Des-Arg9-bradykinin). Conditions: CHO-K1, rat B1R.
T1 construct: expressed in transfected cells; host or cells: CHO K1 cells
T1 sequence (P97583 1-337): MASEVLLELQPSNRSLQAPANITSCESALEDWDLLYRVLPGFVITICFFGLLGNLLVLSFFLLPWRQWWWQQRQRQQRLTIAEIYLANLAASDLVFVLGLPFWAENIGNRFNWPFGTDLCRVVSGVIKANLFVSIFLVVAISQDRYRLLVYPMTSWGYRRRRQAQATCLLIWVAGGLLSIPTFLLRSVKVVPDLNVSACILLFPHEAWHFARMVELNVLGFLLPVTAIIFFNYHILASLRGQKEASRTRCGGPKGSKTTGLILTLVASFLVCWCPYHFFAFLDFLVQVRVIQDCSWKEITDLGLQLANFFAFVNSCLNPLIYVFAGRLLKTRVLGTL
Type: cell-based
Outline: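 Antagonism is measured as the drop in peak Fluo-4 Ca2+ signal when the EC80 agonist follows 10–20 min compound exposure. The single-point screen uses 10 μM; IC50 uses several concentrations. Values are given as % of maximal achievable inhibition.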

inhibition at 10 µM	SMILES
73%	O=C(NC1CCc2ccc(C(=O)N3CCC4(CCN(Cc5ccccn5)CC4)CC3)cc21)c1cc(C(F)(F)F)ccc1Cl (stereo not shown) [IND_CC-640, 2-Chloro-N-[6-[9-(pyridin-2-yl-methyl)-3,9-diazaspiro[5.5]undecane-3-carbonyl]-2,3-dihydro-1H-inden-1-yl]-5-(trifluoromethyl)-benzamide]
74%	O=C(NC1CCc2ccc(C(=O)N3CCC4(CCN(Cc5ccncc5)CC4)CC3)cc21)c1cc(C(F)(F)F)ccc1Cl (stereo not shown) [IND_CC-641, 2-Chloro-N-[6-[9-(pyridin-4-yl-methyl)-3,9-diazaspiro[5.5]undecane-3-carbonyl]-2,3-dihydro-1H-inden-1-yl]-5-(trifluoromethyl)-benzamide]
77%	O=C(NC1CCc2ccc(C(=O)N3CCC4(CCN(Cc5cccnc5)CC4)CC3)cc21)c1cc(C(F)(F)F)ccc1Cl (stereo not shown) [IND_CC-642, 2-Chloro-N-[6-[9-(pyridin-3-yl-methyl)-3,9-diazaspiro[5.5]undecane-3-carbonyl]-2,3-dihydro-1H-inden-1-yl]-5-(trifluoromethyl)-benzamide]
78%	Cn1cccc1CN1CCC2(CC1)CCN(C(=O)c1ccc3c(c1)C(NC(=O)c1cc(C(F)(F)F)ccc1Cl)CC3)CC2 (stereo not shown) [IND_CC-643, 2-Chloro-N-[6-[9-[(1-methyl-1H-pyrrol-2-yl)-methyl]-3,9-diazaspiro[5.5]-undecane-3-carbonyl]-2,3-dihydro-1H-inden-1-yl]-5-(trifluoromethyl)benzamide]
59%	O=C(NC1CCc2ccc(C(=O)N3CCC4(CCN(Cc5c(F)cccc5F)CC4)CC3)cc21)c1cc(C(F)(F)F)ccc1Cl (stereo not shown) [IND_CC-644, 2-Chloro-N-[6-[9-[(2,6-difluoro-phenyl)-methyl]-3,9-diazaspiro[5.5]undecane-3-carbonyl]-2,3-dihydro-1H-inden-1-yl]-5-(trifluoromethyl)-benzamide]
78%	O=C(NC1CCc2ccc(C(=O)N3CCC4(CCN(Cc5ccc(F)c(F)c5)CC4)CC3)cc21)c1cc(C(F)(F)F)ccc1Cl (stereo not shown) [IND_CC-645, 2-Chloro-N-[6-[9-[(3,4-difluoro-phenyl)-methyl]-3,9-diazaspiro[5.5]undecane-3-carbonyl]-2,3-dihydro-1H-inden-1-yl]-5-(trifluoromethyl)-benzamide]
66%	O=C(NC1CCc2ccc(C(=O)N3CCC4(CCN(Cc5cc(F)ccc5F)CC4)CC3)cc21)c1cc(C(F)(F)F)ccc1Cl (stereo not shown) [IND_CC-646, 2-Chloro-N-[6-[9-[(2,5-difluoro-phenyl)-methyl]-3,9-diazaspiro[5.5]undecane-3-carbonyl]-2,3-dihydro-1H-inden-1-yl]-5-(trifluoromethyl)-benzamide]
73%	O=C(NC1CCc2ccc(C(=O)N3CCC4(CCN(Cc5ccc(F)cc5F)CC4)CC3)cc21)c1cc(C(F)(F)F)ccc1Cl (stereo not shown) [IND_CC-647, 2-Chloro-N-[6-[9-[(2,4-difluoro-phenyl)-methyl]-3,9-diazaspiro[5.5]undecane-3-carbonyl]-2,3-dihydro-1H-inden-1-yl]-5-(trifluoromethyl)-benzamide]
78%	COc1ccc(CN2CCC3(CC2)CCN(C(=O)c2ccc4c(c2)C(NC(=O)c2cc(C(F)(F)F)ccc2Cl)CC4)CC3)cc1F (stereo not shown) [IND_CC-648, 2-Chloro-N-[6-[9-[(3-fluoro-4-methoxy-phenyl)-methyl]-3,9-diazaspiro[5.5]-undecane-3-carbonyl]-2,3-dihydro-1H-inden-1-yl]-5-(trifluoromethyl)benzamide]
76%	COc1cccc(F)c1CN1CCC2(CC1)CCN(C(=O)c1ccc3c(c1)C(NC(=O)c1cc(C(F)(F)F)ccc1Cl)CC3)CC2 (stereo not shown) [IND_CC-649, 2-Chloro-N-[6-[9-[(2-fluoro-6-methoxy-phenyl)-methyl]-3,9-diazaspiro[5.5]-undecane-3-carbonyl]-2,3-dihydro-1H-inden-1-yl]-5-(trifluoromethyl)benzamide]
54%	N#Cc1ccc(CN2CCC3(CC2)CCN(C(=O)c2ccc4c(c2)C(NC(=O)c2cc(Cl)ccc2F)CC4)C3)cc1 (stereo not shown) [IND_CC-650, 5-Chloro-N-[6-[8-[(4-cyano-phenyl)-methyl]-2,8-diazaspiro[4.5]decane-2-carbonyl]-2,3-dihydro-1H-inden-1-yl]-2-fluoro-benzamide]
76%	N#Cc1cccc(CN2CCC3(CC2)CCN(C(=O)c2ccc4c(c2)C(NC(=O)c2cc(Cl)ccc2F)CC4)C3)c1 (stereo not shown) [IND_CC-651, 5-Chloro-N-[6-[8-[(3-cyano-phenyl)-methyl]-2,8-diazaspiro[4.5]decane-2-carbonyl]-2,3-dihydro-1H-inden-1-yl]-2-fluoro-benzamide]
53%	O=C(NC1CCc2ccc(C(=O)N3CCC4(CCN(Cc5csnn5)CC4)CC3)cc21)c1cc(Cl)ccc1F (stereo not shown) [IND_CC-652, 5-Chloro-2-fluoro-N-[6-[9-([1,2,3]thiadiazol-4-yl-methyl)-3,9-diazaspiro[5.5]undecane-3-carbonyl]-2,3-dihydro-1H-inden-1-yl]-benzamide]
64%	N#Cc1ccc(CN2CCC3(CC2)CCN(C(=O)c2ccc4c(c2)C(NC(=O)c2cc(Cl)ccc2F)CC4)CC3)cc1 (stereo not shown) [IND_CC-653, 5-Chloro-N-[6-[9-[(4-cyano-phenyl)-methyl]-3,9-diazaspiro[5.5]undecane-3-carbonyl]-2,3-dihydro-1H-inden-1-yl]-2-fluoro-benzamide]
60%	N#Cc1cccc(CN2CCC3(CC2)CCN(C(=O)c2ccc4c(c2)C(NC(=O)c2cc(Cl)ccc2F)CC4)CC3)c1 (stereo not shown) [IND_CC-654, 5-Chloro-N-[6-[9-[(3-cyano-phenyl)-methyl]-3,9-diazaspiro[5.5]undecane-3-carbonyl]-2,3-dihydro-1H-inden-1-yl]-2-fluoro-benzamide]
59%	Cc1nc[nH]c1CN1CCC2(CC1)CCN(C(=O)c1ccc3c(c1)C(NC(=O)c1cc(C(F)(F)F)ccc1Cl)CC3)C2 (stereo not shown) [IND_CC-655, 2-Chloro-N-[6-[8-[(5-methyl-3H-imidazol-4-yl)-methyl]-2,8-diazaspiro[4.5]-decane-2-carbonyl]-2,3-dihydro-1H-inden-1-yl]-5-(trifluoromethyl)-benzamide]
51%	O=C(NC1CCc2ccc(C(=O)N3CCC4(CCN(Cc5csnn5)CC4)C3)cc21)c1cc(C(F)(F)F)ccc1Cl (stereo not shown) [IND_CC-656, 2-Chloro-N-[6-[8-([1,2,3]thiadiazol-4-yl-methyl)-2,8-diazaspiro[4.5]decane-2-carbonyl]-2,3-dihydro-1H-inden-1-yl]-5-(trifluoromethyl)-benzamide]
66%	Cc1noc(C)c1CN1CCC2(CC1)CCN(C(=O)c1ccc3c(c1)C(NC(=O)c1cc(C(F)(F)F)ccc1Cl)CC3)C2 (stereo not shown) [IND_CC-657, 2-Chloro-N-[6-[8-[(3,5-dimethyl-isoxazol-4-yl)-methyl]-2,8-diazaspiro[4.5]-decane-2-carbonyl]-2,3-dihydro-1H-inden-1-yl]-5-(trifluoromethyl)-benzamide]
51%	N#Cc1ccc(CN2CCC3(CC2)CCN(C(=O)c2ccc4c(c2)C(NC(=O)c2cc(C(F)(F)F)ccc2Cl)CC4)C3)cc1 (stereo not shown) [IND_CC-658, 2-Chloro-N-[6-[8-[(4-cyano-phenyl)-methyl]-2,8-diazaspiro[4.5]decane-2-carbonyl]-2,3-dihydro-1H-inden-1-yl]-5-(trifluoromethyl)-benzamide]
81%	N#Cc1cccc(CN2CCC3(CC2)CCN(C(=O)c2ccc4c(c2)C(NC(=O)c2cc(C(F)(F)F)ccc2Cl)CC4)C3)c1 (stereo not shown) [IND_CC-659, 2-Chloro-N-[6-[8-[(3-cyano-phenyl)-methyl]-2,8-diazaspiro[4.5]decane-2-carbonyl]-2,3-dihydro-1H-inden-1-yl]-5-(trifluoromethyl)-benzamide]
50%	N#Cc1ccccc1CN1CCC2(CC1)CCN(C(=O)c1ccc3c(c1)C(NC(=O)c1cc(C(F)(F)F)ccc1Cl)CC3)C2 (stereo not shown) [IND_CC-660, 2-Chloro-N-[6-[8-[(2-cyano-phenyl)-methyl]-2,8-diazaspiro[4.5]decane-2-carbonyl]-2,3-dihydro-1H-inden-1-yl]-5-(trifluoromethyl)-benzamide]
95%	Cc1nc[nH]c1CN1CCC2(CC1)CCN(C(=O)c1ccc3c(c1)C(NC(=O)c1cc(C(F)(F)F)ccc1Cl)CC3)CC2 (stereo not shown) [IND_CC-661, 2-Chloro-N-[6-[9-[(5-methyl-3H-imidazol-4-yl)-methyl]-3,9-diazaspiro[5.5]-undecane-3-carbonyl]-2,3-dihydro-1H-inden-1-yl]-5-(trifluoromethyl)benzamide]
76%	Cc1nc(CN2CCC3(CC2)CCN(C(=O)c2ccc4c(c2)C(NC(=O)c2cc(C(F)(F)F)ccc2Cl)CC4)CC3)c[nH]1 (stereo not shown) [IND_CC-662, 2-Chloro-N-[6-[9-[(2-methyl-1H-imidazol-4-yl)-methyl]-3,9-diazaspiro[5.5]-undecane-3-carbonyl]-2,3-dihydro-1H-inden-1-yl]-5-(trifluoromethyl)benzamide]
85%	O=C(NC1CCc2ccc(C(=O)N3CCC4(CCN(Cc5csnn5)CC4)CC3)cc21)c1cc(C(F)(F)F)ccc1Cl (stereo not shown) [IND_CC-663, 2-Chloro-N-[6-[9-([1,2,3]thiadiazol-4-yl-methyl)-3,9-diazaspiro[5.5]undecane-3-carbonyl]-2,3-dihydro-1H-inden-1-yl]-5-(trifluoromethyl)-benzamide]
54%	Cc1c(CN2CCC3(CC2)CCN(C(=O)c2ccc4c(c2)C(NC(=O)c2cc(C(F)(F)F)ccc2Cl)CC4)CC3)cnn1C (stereo not shown) [IND_CC-664, 2-Chloro-N-[6-[9-[(1,5-dimethyl-1H-pyrazol-4-yl)-methyl]-3,9-diazaspiro[5.5]-undecane-3-carbonyl]-2,3-dihydro-1H-inden-1-yl]-5-(trifluoromethyl)benzamide]
